Measured values taken from paper PMC9823097, “Dysregulation of PRMT5 in chronic lymphocytic leukemia promotes progression with high risk of Richter’s transformation” (Nature Communications, 2023).
Values joined by “and” are separate entries in the source; they are usually repeats but may differ in a detail not shown here. Equal entries are not always repeated. “Also recorded” adds a separate entry of the source.

Assays:
HG3 CLL cell line = assay: Global symmetric dimethyl arginine (SDMA) western blot, HG3; format: cell-based; conditions: HG3, EPZ015666 for 72hr
Source text: Proteins extracted from whole-cell lysates were resolved by SDS-PAGE and transferred on nitrocellulose membrane as previously described. CpG685 oligonucleotide was obtained from the OSU Cytogenetics Core Lab. Antibodies used for immunoblots included anti-human PRMT5 (Abcam #ab109451), GAPDH (Millipore Sigma #MAB374), SDMA (Cell Signaling Technology #13222), c-Myc (Cell Signaling Technology #5605S), and β-Actin (Cell Signaling Technology #4967S). Cas9-mediated doxycycline-inducible knockout of PRMT5 utilized a targeted sgRNA (guide sequence: […], PAM: GGG).

HG3 cells = assay: Cell growth curves over 12 days, HG3; format: cell-based
Method: Live cells/mL were counted on days 3, 6, 10, and 12. […] The split factor was calculated at indicated time points by dividing the counted cells/mL by 3E5. Cell growth was extrapolated over time by multiplying the subsequent cell count by the previous split factor. Cell growth is plotted as fold change relative to DMSO-treated cells.

[1] = system: Eµ-PRMT5/TCL1 Cd19+Cd5+ spleen cells engrafted into immunocompetent C57/BL6J mice; assay: Adoptive transfer of Eµ-PRMT5/TCL1 spleen cells into C57/BL6J mice, treatment study; format: in vivo
Method: For adoptive transfer, viable Cd19^+Cd5^+ cells (5 × 10^6) from the spleen of an Eµ-PRMT5/TCL1 transgenic mouse with active CLL-like leukemia (>80% circulating in peripheral blood) and palpable splenomegaly were engrafted by tail vein into immunocompetent C57/BL6J female mice. Engrafted mice were randomly assigned to treatment conditions: PRT382 10 mg/kg, EPZ015666 50 mg/kg, or vehicle (0.5% methylcellulose, 0.1% tween) at 1-week post engraftment. All treatments were administered by oral gavage 4 contiguous days per week (Mon-Thurs). Predefined euthanasia criteria for mice in all transgenic colonies and murine transplant models were followed and included lethargy, impaired motility, splenomegaly, enlarged lymph nodes and/or superficial lymphoid tumors greater than 1.6 cm in diameter (or cumulative diameter of 1.6 cm if multiple tumors), decrease in body weight (>20%), ruffled fur, hunched back, failure to nest, and loss of appetite.

O=C(NC[C@H](O)CN1CCc2ccccc2C1)c1cc(NC2COC2)ncn1 [EPZ015666]
global symmetric dimethyl arginine residues (immunoblot) (HG3 CLL cell line): dose dependent global loss; also recorded: only a modest decrease
Rep 1 Live Cells [Fold Change] (HG3 cells; HG3, 1 nM, day 0): 1 Fold Change
Rep 2 Live Cells [Fold Change] (HG3 cells; HG3, 1 nM, day 0): 1 Fold Change
Rep 1 Live Cells [Fold Change] (HG3 cells; HG3, 1 nM, day 3): 5.41 Fold Change
Rep 2 Live Cells [Fold Change] (HG3 cells; HG3, 1 nM, day 3): 6.183 Fold Change
Rep 1 Live Cells [Fold Change] (HG3 cells; HG3, 1 nM, day 6): 37.87 Fold Change
Rep 2 Live Cells [Fold Change] (HG3 cells; HG3, 1 nM, day 6): 41.0161 Fold Change
Rep 1 Live Cells [Fold Change] (HG3 cells; HG3, 1 nM, day 10): 230.663 Fold Change
Rep 2 Live Cells [Fold Change] (HG3 cells; HG3, 1 nM, day 10): 364.018 Fold Change
Rep 1 Live Cells [Fold Change] (HG3 cells; HG3, 1 nM, day 12): 1359.37 Fold Change
Rep 2 Live Cells [Fold Change] (HG3 cells; HG3, 1 nM, day 12): 2238.71 Fold Change
Rep 1 Live Cells [Fold Change] (HG3 cells; HG3, 10 nM, day 0): 1 Fold Change
Rep 2 Live Cells [Fold Change] (HG3 cells; HG3, 10 nM, day 0): 1 Fold Change
Rep 1 Live Cells [Fold Change] (HG3 cells; HG3, 10 nM, day 3): 6.05 Fold Change
Rep 2 Live Cells [Fold Change] (HG3 cells; HG3, 10 nM, day 3): 5.567 Fold Change
Rep 1 Live Cells [Fold Change] (HG3 cells; HG3, 10 nM, day 6): 44.77 Fold Change
Rep 2 Live Cells [Fold Change] (HG3 cells; HG3, 10 nM, day 6): 36.2761 Fold Change
Rep 1 Live Cells [Fold Change] (HG3 cells; HG3, 10 nM, day 10): 317.46 Fold Change
Rep 2 Live Cells [Fold Change] (HG3 cells; HG3, 10 nM, day 10): 308.347 Fold Change
Rep 1 Live Cells [Fold Change] (HG3 cells; HG3, 10 nM, day 12): 1720.21 Fold Change
Rep 2 Live Cells [Fold Change] (HG3 cells; HG3, 10 nM, day 12): 1505.76 Fold Change
Rep 1 Live Cells [Fold Change] (HG3 cells; HG3, 100 nM, day 0): 1 Fold Change
Rep 2 Live Cells [Fold Change] (HG3 cells; HG3, 100 nM, day 0): 1 Fold Change
Rep 3 Live Cells [Fold Change] (HG3 cells; HG3, 100 nM, day 0): 1 Fold Change
Rep 4 Live Cells [Fold Change] (HG3 cells; HG3, 100 nM, day 0): 1 Fold Change
Rep 1 Live Cells [Fold Change] (HG3 cells; HG3, 100 nM, day 3): 5.29 Fold Change
Rep 2 Live Cells [Fold Change] (HG3 cells; HG3, 100 nM, day 3): 5.42 Fold Change
Rep 3 Live Cells [Fold Change] (HG3 cells; HG3, 100 nM, day 3): 7.7 Fold Change
Rep 4 Live Cells [Fold Change] (HG3 cells; HG3, 100 nM, day 3): 8.317 Fold Change
Rep 1 Live Cells [Fold Change] (HG3 cells; HG3, 100 nM, day 6): 34.2087 Fold Change
Rep 2 Live Cells [Fold Change] (HG3 cells; HG3, 100 nM, day 6): 34.688 Fold Change
Rep 3 Live Cells [Fold Change] (HG3 cells; HG3, 100 nM, day 6): 44.4033 Fold Change
Rep 4 Live Cells [Fold Change] (HG3 cells; HG3, 100 nM, day 6): 58.2167 Fold Change
Rep 1 Live Cells [Fold Change] (HG3 cells; HG3, 100 nM, day 10): 327.781 Fold Change
Rep 2 Live Cells [Fold Change] (HG3 cells; HG3, 100 nM, day 10): 304.216 Fold Change
Rep 3 Live Cells [Fold Change] (HG3 cells; HG3, 100 nM, day 10): 521.739 Fold Change
Rep 4 Live Cells [Fold Change] (HG3 cells; HG3, 100 nM, day 10): 589.444 Fold Change
Rep 1 Live Cells [Fold Change] (HG3 cells; HG3, 100 nM, day 12): 1552.37 Fold Change
Rep 2 Live Cells [Fold Change] (HG3 cells; HG3, 100 nM, day 12): 1763.75 Fold Change
Rep 3 Live Cells [Fold Change] (HG3 cells; HG3, 100 nM, day 12): 1182.61 Fold Change
Rep 4 Live Cells [Fold Change] (HG3 cells; HG3, 100 nM, day 12): 2564.08 Fold Change
Rep 1 Live Cells [Fold Change] (HG3 cells; HG3, 1 µM, day 0): 1 Fold Change
Rep 2 Live Cells [Fold Change] (HG3 cells; HG3, 1 µM, day 0): 1 Fold Change
Rep 3 Live Cells [Fold Change] (HG3 cells; HG3, 1 µM, day 0): 1 Fold Change
Rep 4 Live Cells [Fold Change] (HG3 cells; HG3, 1 µM, day 0): 1 Fold Change
Rep 1 Live Cells [Fold Change] (HG3 cells; HG3, 1 µM, day 3): 4.22 Fold Change
Rep 2 Live Cells [Fold Change] (HG3 cells; HG3, 1 µM, day 3): 4.83 Fold Change
Rep 3 Live Cells [Fold Change] (HG3 cells; HG3, 1 µM, day 3): 7.35 Fold Change
Rep 4 Live Cells [Fold Change] (HG3 cells; HG3, 1 µM, day 3): 8.167 Fold Change
Rep 1 Live Cells [Fold Change] (HG3 cells; HG3, 1 µM, day 6): 27.219 Fold Change
Rep 2 Live Cells [Fold Change] (HG3 cells; HG3, 1 µM, day 6): 35.0658 Fold Change
Rep 3 Live Cells [Fold Change] (HG3 cells; HG3, 1 µM, day 6): 34.79 Fold Change
Rep 4 Live Cells [Fold Change] (HG3 cells; HG3, 1 µM, day 6): 45.4611 Fold Change
Rep 1 Live Cells [Fold Change] (HG3 cells; HG3, 1 µM, day 10): 173.707 Fold Change
Rep 2 Live Cells [Fold Change] (HG3 cells; HG3, 1 µM, day 10): 145.701 Fold Change
Rep 3 Live Cells [Fold Change] (HG3 cells; HG3, 1 µM, day 10): 233.093 Fold Change
Rep 4 Live Cells [Fold Change] (HG3 cells; HG3, 1 µM, day 10): 381.873 Fold Change
Rep 1 Live Cells [Fold Change] (HG3 cells; HG3, 1 µM, day 12): 608.205 Fold Change
Rep 2 Live Cells [Fold Change] (HG3 cells; HG3, 1 µM, day 12): 463.207 Fold Change
Rep 3 Live Cells [Fold Change] (HG3 cells; HG3, 1 µM, day 12): 924.602 Fold Change
Rep 4 Live Cells [Fold Change] (HG3 cells; HG3, 1 µM, day 12): 1559.32 Fold Change
effect on growth potential (cell growth) (HG3 cells; HG3, continuous exposure over 12 days): No changes in growth potential
Week 1 CD19+/B220dim ([1]; Figure 7F, per mouse, week 1, in % (unit assumed)): 11.48 and 18.62 and 27.54 and 11.19 and 10.12 and 10.58 and 15.76 and 16.07 and 10.74
Week 2 CD19+/B220dim ([1]; Figure 7F, per mouse, week 2, in % (unit assumed)): 15.67 and 34.32 and 54.88 and 26.83 and 24.62 and 12.62 and 27.46 and 30.9 and 21.08
Week 3 CD19+/B220dim ([1]; Figure 7F, per mouse, week 3, in % (unit assumed)): 36.29 and 68.26 and 63.64 and 49.66 and 47.13 and 26.83 and 51.14 and 52.04 and 25.17
Week 4 CD19+/B220dim ([1]; Figure 7F, per mouse, week 4, in % (unit assumed)): 56.34 and 75.81 and 60.54 and 71.56 and 63.33 and 48.69 and 69.46 and 71.25 and 53.76
Week 5 CD19+/B220dim ([1]; Figure 7F, per mouse, week 5): 50.26 and 79.76 and 83.28 and 82.04 and 59.53 and 59.67 and 70.88 and 81.41 and 79.52
Week 6 CD19+/B220dim ([1]; Figure 7F, per mouse, week 6, in % (unit assumed)): 79.53 and 74.33 and 84.12 and 75.35 and 79.18 and 56.6 and 82.56 and 74.54 and 89.39
Week 7 CD19+/B220dim ([1]; Figure 7F, per mouse, week 7, in % (unit assumed)): 80.7 and 87.13 and 89.6 and 89.4 and 86.59 and 66 and 85.98 and 83.54 and 93.2
Week 8 CD19+/B220dim ([1]; Figure 7F, per mouse, week 8): 84.94 and 92.1 and 90.67 and 85.36 and 88.33 and 44.29 and 85.8 and 89.46
Week 9 CD19+/B220dim ([1]; Figure 7F, per mouse, week 9): 85.98 and 79.2 and 88.88
Week 10 CD19+/B220dim ([1]; Figure 7F, per mouse, week 10, in % (unit assumed)): 88.79
Endpoint ([1]; Figure 7G, survival endpoint indicator, per mouse): 1
Days since enrollment ([1]; Figure 7G, survival, per mouse): 64 days and 50 days and 52 days and 51 days and 58 days and 45 days
Spleen weight ([1]; Figure 7H, per mouse): 1.7 g and 2.27 g and 2.35 g and 2.58 g and 2.18 g and 1.84 g and 2.11 g and 1.38 g
Median survival post-enrollment ([1]; PRT382 10 mg/kg, EPZ015666 50 mg/kg, oral gavage 4 contiguous days per week): 51 days
Spleen volume ([1]; individual mice, Supplemental Figure 6F): 1489.45 mm3 and 4749.69 mm3 and 2852.93 mm3 and 3279.99 mm3 and 2090.66 mm3 and 1726.14 mm3 and 2169.7 mm3 and 1234.53 mm3
